One data set deals with DU-145. In words: Antiproliferative activity against human DU-145 cells assessed as inhibition of cell proliferation incubated for 3 days by Alamar blue dye based assay. It is filed as functional. Conditions: DU-145, 72 h. On the technique in general: Alamar Blue is a resazurin reagent that responds to reducing activity.
The test system of another data set is HeLa. Kind of data set: Antiproliferative activity against human HeLa cells assessed as inhibition of cell proliferation measured after 48 hrs by MTT assay. It is filed as functional, cell-based. In general terms: Tetrazolium dyes change colour on reduction, which living cells bring about.
Data set [1] in a line: Antiproliferative activity against human HaCaT cells assessed as inhibition of cell proliferation measured after 72 hrs by MTT assay. The data set is classed as toxicity, cell-based.
Data set [2] concerns K562. In words: Anticancer activity against human K562 cells assessed as cell growth at 10^-5 M incubated for 48 hrs by SRB assay relative to control. The data set is classed as functional. Conditions: K562, 48 h, dose 1 10^-5M, read-out: Activity. In general terms: In SRB staining, fixed cells bind dye roughly in proportion to their protein.
Data set [3] is described as follows: Antiproliferative activity against J774.2 cells assessed as inhibition of cell proliferation measured after 72 hrs by MTT assay. The data set is classed as toxicity, cell-based. The following applies: mouse.
For data set [4], the system named is K562. In words: Antiproliferative activity against human K562 cells assessed as inhibition of cell proliferation measured after 72 hrs by MTT assay. Conditions: K562, 72 h. The data set is classed as functional, cell-based.
Data set [5] can be described thus: Antiproliferative activity against NIH3T3 cells assessed as inhibition of cell proliferation measured after 72 hrs by MTT assay. The following applies: mouse. It is filed as toxicity, cell-based.
Data set [6] can be described thus: Selectivity index, ratio of IC50 for […] to IC50 for human K562 cells. It is filed as functional.
The nature of data set [7]: Selectivity index, ratio of IC50 for human HaCaT cells to IC50 for human K562 cells. The following applies: HaCaT cells and K562 cells, read-out: Ratio IC50. The data set is classed as toxicity.
Another data set has as its system T47D. Kind of data set: Antiproliferative activity against human T47D cells assessed as inhibition of cell proliferation measured after 48 hrs by SRB assay. It is filed as functional, cell-based.
The subject of the next data set is LOX IMVI. Kind of data set: Anticancer activity against human LOX IMVI cells assessed as cell growth at 10^-5 M incubated for 48 hrs by SRB assay relative to control. Conditions: dose 1 10^-5M, read-out: Activity. It is filed as functional.
Another data set deals with UACC-62. Kind of data set: Anticancer activity against human UACC-62 cells assessed as cell growth at 10^-5 M incubated for 48 hrs by SRB assay relative to control. The following applies: UACC-62, 48 h, dose 1 10^-5M, read-out: Activity. The data set is classed as functional.
The test system of the next data set is CAKI-1. Kind of data set: Anticancer activity against human CAKI-1 cells assessed as cell growth at 10^-5 M incubated for 48 hrs by SRB assay relative to control. The data set is classed as functional. The following applies: CAKI-1, 48 h, dose 1 10^-5M, read-out: Activity.
The next data set deals with ACHN. Kind of data set: Anticancer activity against human ACHN cells assessed as cell growth at 10^-5 M incubated for 48 hrs by SRB assay relative to control. The following applies: dose 1 10^-5M, read-out: Activity. The data set is classed as functional.
Data set [8] addresses NAD-dependent protein deacetylase sirtuin-2 (Homo sapiens, UniProt Q8IXJ6). Kind of data set: Inhibition of N-terminal His6-tagged human Sirt2 (25 to 389 residues) using ZMAL as substrate incubated for 4 hrs by fluorescence based assay.

pIC50: −log10 of the molar value.

The values that follow come from ChEMBL document CHEMBL5335775, “Bioisosteric replacement of 1H-1,2,3-triazole with 1H-tetrazole ring enhances anti-leukemic activity of (5-benzylthiazol-2-yl)benzamides” (Eur J Med Chem, 2023).

Chain of NAD-dependent protein deacetylase sirtuin-2 (Q8IXJ6 whole entry, the tested form may be a part): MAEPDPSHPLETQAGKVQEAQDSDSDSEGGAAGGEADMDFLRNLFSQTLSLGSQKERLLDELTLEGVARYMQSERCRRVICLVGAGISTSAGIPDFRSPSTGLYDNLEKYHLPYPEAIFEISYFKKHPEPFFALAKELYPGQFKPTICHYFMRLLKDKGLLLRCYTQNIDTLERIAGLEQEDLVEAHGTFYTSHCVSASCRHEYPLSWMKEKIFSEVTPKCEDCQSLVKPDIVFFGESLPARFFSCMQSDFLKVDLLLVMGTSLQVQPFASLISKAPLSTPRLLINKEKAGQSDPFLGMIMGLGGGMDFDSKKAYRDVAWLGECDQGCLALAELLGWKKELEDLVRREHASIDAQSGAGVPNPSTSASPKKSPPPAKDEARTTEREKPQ

`COc1ccc(Cc2cnc(NC(=O)/C=C/c3ccco3)s2)cc1`: the pIC50 in the data set with DU-145 was 7.82.
As for `CC(C)(C)c1nc(NC(=O)CN2CCN(c3ccc(O)cc3)CC2)sc1Cc1ccc(Cl)cc1`, the pIC50 in the data set on HeLa was 5.80.
On to `COc1ccc(Cc2cnc(NC(=O)c3ccc(-n4cnnn4)cc3)s2)cc1`, for which the IC50 at 72 h in data set [1] was > 100 µM; in [3] it was 8.22 µM; in data set [5], > 100 µM. Further, in the data set with K562 [2], the growth at 10 µM was determined as 36.7%. The pIC50 in the data set on K562 [4] was < 4.00.
For the compound `O=C(/C=C/c1ccc(-n2cnnn2)cc1)Nc1ncc(Cc2ccccc2)s1`, the results for the half-maximal inhibitory concentration (IC50) at 72 h in data set [1], in data set [3] and in data set [5] were 50.4 µM, 37.2 µM and > 100 µM, respectively. The “Ratio IC50” value in data set [6] came to 35.5. In the data set with K562 [4], the negative logarithm of the IC50 (pIC50) was 5.98.
As for `O=C(Nc1ncc(Cc2ccccc2)s1)c1ccc(-n2cnnn2)cc1`, the IC50 at 72 h in data set [1] was 33 µM; in [3] it was 48.1 µM; in data set [5], > 100 µM. In data set [7], the selectivity ratio worked out at 4. In the data set on K562 [4], the pIC50 is 5.08.
In the case of `O=C(Nc1ncc(Cc2cccc(Cl)c2Cl)s1)c1cc2ccccc2o1`, in the data set with T47D, the pIC50 was 7.59.
As to `Cc1cccc(Cc2cnc(NC(=O)c3cccc(-n4cnnn4)c3)s2)c1`, the values for the IC50 at 72 h in data set [1], in [3] and in data set [5] were > 100 µM, 52.8 µM and > 100 µM, respectively. Also, in the data set with K562 [4], the pIC50 was < 4.00.
Take `Cc1ccc(Cc2cnc(NC(=O)c3ccc(-n4cnnn4)cc3)s2)cc1`: the results for the IC50 at 72 h in data set [1], in data set [3] and in [5] were 52.6 µM, 59.8 µM and > 100 µM, respectively. The growth at 10 µM in the data set on K562 [2] came to 22.9%; in the data set with LOX IMVI, 39.4%; in the data set on UACC-62 it was 20.3%; in the data set on CAKI-1, 39.1%; in the data set on ACHN it was 39.5%. Further, the selectivity ratio in data set [7] is 6.6. Moreover, the pIC50 in the data set with K562 [4] is 5.10.
In data set [8], `COCCn1cc(COc2cccc(Cc3cnc(NC(=O)CSc4nc(C)cc(C)n4)s3)c2)nn1` gave a pIC50 of 6.93.

A word on the pIC50: it is −log10 of the IC50, conventionally taken in molar units. As a reminder, the IC50 is the midpoint of a concentration-inhibition curve.
